Patent publication US20250101108A1, “METHODS TO ENHANCE THERAPEUTIC EFFICACY IN MELANOMA VIA MODULATION OF CELL SURFACE PD-L1/L2” (THE REGENTS OF THE UNIVERSITY OF CALIFORNIA, priority 2021, published 2025)
Where two headings read alike, the source gives them in different places.

Tests used:
ITCH = ITCH (Homo sapiens, UniProt Q96J02); conditions: cited from earlier work
[1] = test system: tumor cell-surface PD-L1/L2; assay: Cell-surface PD-L1 and PD-L2 detection by cell-surface staining and FACS analysis in cultured cell lines; assay type: cell-based, human
Experimental: (§1) (6A) Structure and chemical name of AK087. (6B) M238R1 cells with ITCH-FLAG over-expression were treated with 0, 40, or 80 μM of AK087 for 6 days and then treated with MG-132 (20 μM) for 4 hours followed by anti-PD-L1 or anti-FLAG IP and Western blot (WB) detection of UB. (6C) 293T cells co-transfected with PD-L1-FLAG and ITCH-HA were treated with 0, 40, or 80 μM of AK087 for 6 days and then treated with MG-132 (20 μM) for 4 hours followed by anti-HA or anti-FLAG IP and WB detection of UB. (6D) M238R1 cell-surface levels of PD-L1 (left) and PD-L2 (right) as measured by cell-surface staining and FACS analysis after 0, 20, 40, 80 μM AK087 treatment for 6 days. Mean±SEMs (n=3). […]
(§2) FIGS. 9A-9N show physical and functional interactions between ITCH and PD-L1/L2. (9A) Cell-surface levels of PD-L2 in M238R1 (left) and MDA-MB-231 (right) cells stably expressing control shRNA (shCtr) or ITCH-targeting shRNAs (shiICH-1, shiICH-2), as measured by cell-surface staining and FACS analysis (PD-L2 is not detectable in H358 cells). MFI, mean fluorescence intensity. […] (9B) Cell-surface levels of PD-L2 in M238 R1 cells stably expressing empty vector (Vec) or over-expression (OE) ITCH, as measured by cell-surface staining and FACS analysis. […] (9C) Cell-surface levels of PD-L1 in M238R1, H358, and MDA-MB-231 stably expressing control shRNA (shCtr) or ITCH-targeting shRNAs (shiICH-1, shiICH-2) and M238R1 stably expressing empty vector (Vec) or OE ITCH, as measured by immunofluorescence staining. […] (9D) PD-L1 internalization in M238 R1 cells stably expressing empty vector (Vec) or OE ITCH, as measured by FACS analysis. […]

total PD-L1 = assay: Western blots of total PD-L1 protein levels in cultured cell lines; assay type: cell-based, human; conditions: for total PD-L1 protein level: 20, 40, 80 μM for 6 days
Experimental: as §1, §2

ITCH-FLAG = molecular target: T1, ITCH-FLAG (Homo sapiens, UniProt Q96J02); assay: Ubiquitination assay (IP and WB detection of UB) in M238 R1 cells expressing ITCH-FLAG; assay type: cell-based; conditions: 0, 40, 80 μM for 6 days, then MG-132 20 μM 4 hours
T1 construct: expressed in transfected cells
T1 sequence (Q96J02 whole entry): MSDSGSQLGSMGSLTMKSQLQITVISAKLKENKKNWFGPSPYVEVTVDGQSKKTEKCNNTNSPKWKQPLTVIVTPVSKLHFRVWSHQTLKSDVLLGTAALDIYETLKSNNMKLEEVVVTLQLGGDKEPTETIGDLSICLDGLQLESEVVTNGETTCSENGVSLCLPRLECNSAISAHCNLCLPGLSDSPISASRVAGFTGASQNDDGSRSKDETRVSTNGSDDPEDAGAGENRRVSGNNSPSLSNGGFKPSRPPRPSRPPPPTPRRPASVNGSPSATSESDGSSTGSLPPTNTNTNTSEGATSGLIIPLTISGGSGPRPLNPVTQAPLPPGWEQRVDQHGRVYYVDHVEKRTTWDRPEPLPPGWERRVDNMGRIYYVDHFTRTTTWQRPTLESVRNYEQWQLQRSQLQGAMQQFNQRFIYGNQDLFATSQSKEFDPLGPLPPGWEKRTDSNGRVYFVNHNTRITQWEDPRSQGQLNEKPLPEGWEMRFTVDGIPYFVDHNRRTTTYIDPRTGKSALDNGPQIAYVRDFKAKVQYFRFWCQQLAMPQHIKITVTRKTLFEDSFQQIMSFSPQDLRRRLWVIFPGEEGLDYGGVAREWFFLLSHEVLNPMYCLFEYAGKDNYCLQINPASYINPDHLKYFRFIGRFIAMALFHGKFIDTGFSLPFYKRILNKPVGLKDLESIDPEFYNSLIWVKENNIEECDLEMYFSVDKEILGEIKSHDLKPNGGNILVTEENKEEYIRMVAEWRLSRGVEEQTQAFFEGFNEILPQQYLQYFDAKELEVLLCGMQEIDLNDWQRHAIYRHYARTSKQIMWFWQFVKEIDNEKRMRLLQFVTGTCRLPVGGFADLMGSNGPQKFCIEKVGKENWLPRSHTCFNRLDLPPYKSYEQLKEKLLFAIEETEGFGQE
Experimental: as §1

endogenous PD-L1 = assay: Ubiquitination assay (anti-PD-L1 IP and WB detection of UB) in M238 R1 cells; assay type: cell-based, human; conditions: 0, 40, 80 μM for 6 days, then MG-132 20 μM 4 hours
Experimental: as §1

[2] = test system: YUMM1.7ER melanoma tumors; assay: Subcutaneous syngeneic YUMM1.7ER tumors on trametinib, acquired MAPKi-resistance; assay type: in vivo
YUMM1.7ER = assay: Response of YUMM1.7ER melanoma to immune checkpoint blockade; assay type: in vivo, murine; conditions: AK087 10 mg/kg/day subcutaneously with anti-PD-1, anti-CTLA-4
Experimental: (§3) Data are derived from two murine models of melanoma, YUMM1.ER, Braf^V600MUT melanoma, and NILER1-4, […] melanoma. (15A) YUMM1.7ER. n=9-10 per group. Means±SEM. Anti-PD-1 200 μg/mouse, anti-CTLA-4 200 μg/mouse three times a week for the first two weeks, then change to twice/week treatment. AK087 10 mg/kg/day (Subcutaneously, daily) administration. *p<0.05, student's t test. (15B) NILER1-4. n=8-10 per group. Means±SEM. Anti-PD-1 200 μg/mouse, anti-CTLA-4 200 g/mouse, aLAG-3 200 μg/mouse three times a week for the first two weeks, then change to twice/week treatment. AK087 15 mg/kg/day (Subcutaneously, daily) administration. *p<0.05, student's t test.
as §3, with “melanoma. […]” for “melanoma. (15A) YUMM1.7ER. n=9-10 per group.”, “then changed” for “then change”, “test. […]” for “test. (15B) NILER1-4. n=8-10 per group.”, “200 μg/mouse,” for “200 g/mouse,”

NILER1-4 = assay: Response of NILER1-4 melanoma to immune checkpoint blockade; assay type: in vivo, murine; conditions: AK087 15 mg/kg/day subcutaneously with anti-PD-1, anti-CTLA-4, aLAG-3
Experimental: as §3
as §3, with “melanoma. […]” for “melanoma. (15A) YUMM1.7ER. n=9-10 per group.”, “then changed” for “then change”, “test. […]” for “test. (15B) NILER1-4. n=8-10 per group.”, “200 μg/mouse,” for “200 g/mouse,”

UBCH7 and ITCH [3] = molecular target: T2, UBCH7 and ITCH (Homo sapiens, UniProt Q96J02); assay: UBCH7-ITCH interaction, proximity ligation assay (PLA) in cancer cell lines; assay type: cell-based; conditions: M229R5, H358, M238R1 and M238, 100 μM for 2 days
T2 sequence (Q96J02 whole entry): as above
T2 sequence (P68036 whole entry partner): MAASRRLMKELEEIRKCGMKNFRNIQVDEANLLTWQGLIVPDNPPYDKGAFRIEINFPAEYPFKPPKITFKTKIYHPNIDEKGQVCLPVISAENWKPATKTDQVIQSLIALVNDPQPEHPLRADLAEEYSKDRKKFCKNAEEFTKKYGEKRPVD
Experimental: Right panel: M229R5, H358, M238R1 and M238 cells were treated with DMSO or AK087 (100 μM) for 2 days followed by proximity ligation assay (PLA) using anti-UBCH7 and anti-ITCH antibodies. Signal dots per cell was quantified by the Duolink ImageTool. For bar graph: n=2-3. Means±SEM. *p<0.05, **p<0.01, student's t test.
For bar graph: n=2-3. Means #SEM. *p<0.05, **p<0.01, student's t test.

UBCH7 and ITCH [4] = molecular target: T2, UBCH7 and ITCH; assay: UBCH7-ITCH interaction, anti-FLAG immunoprecipitation and WB in HEK293T cells; assay type: cell-based; design: expressed in transfected cells; host or cells: HEK293T; conditions: HA-UBCH7 and ITCH-FLAG, 100 μM for 24 or 36 hours
[5] = M238 R1 Vec or OE ITCH, 16 hours
[6] = AK087 10 mg/kg/day for 17 days, co-treatment with trametinib

Chain of ITCH (Q96J02 whole entry, species assumed): as the sequence (Q96J02 whole entry) above

## Cc1ccc(S(=O)(=O)c2cc3ccc(C)n3cn2)cc1 [RL 4, 4-methylphenyl 7-methylpyrrolo[1,2-c]pyrimidin-3-yl sulfone]
ITCH; Screening concentration 10 uM
  Activity (%): 145%

## CCN(CC)CCCC(C)Nc1ccnc2cc(Cl)ccc12 (stereo not shown) [chloroquine, reference compound]
[1]; [5]
  down-regulation of cell-surface PD-L1 levels elicited by ITCH over-expression: rescued down-regulation
Total PD-L1; [5]
  down-regulation of total PD-L1 levels elicited by ITCH over-expression: rescued down-regulation

## CHLORO- PHYLLIDE Cu COMPLEX Na SALT [RL 1]
ITCH; Screening concentration 20 uM
  Activity (%): 147%

## Cc1ccc(N2C(=O)C(Cl)=C(N3CCCCC3)C2=O)cc1 [RL 2, 3-chloro-1-(4-methylphenyl)-4-piperidin-1-yl-1H-pyrrole-2,5-dione]
ITCH; Screening concentration 10 uM
  Activity (%): 141%

## Cc1[nH]nc2c1C(c1ccccc1OC(C)C)C(C#N)=C(N)O2 (stereo not shown) [RL 6, 6-amino-3-methyl-4-{2-[(1-methylethyl)oxy]phenyl}-2,4-dihydropyrano[2,3-c]pyrazole-5-carbonitrile]
ITCH; Screening concentration 10 uM
  Activity (%): 194%

## Cc1ccc(NS(=O)(=O)c2ccccc2)cc1C [RL 3, N-(3,4-dimethylphenyl)benzenesulfonamide]
ITCH; Screening concentration 10 uM
  Activity (%): 140%

## COc1cc2oc(=O)cc(C)c2c(OC)c1OC [RL 5, 5,6,7-trimethoxy-4-methyl-2H-chromen-2-one]
ITCH-FLAG
  poly/auto-ubiquitination of ITCH-FLAG: dose-dependently enhanced
Endogenous PD-L1
  poly-ubiquitination of endogenous PD-L1: enhancing the poly-ubiquitination
[1]; H358, 0, 20, 40, 80 μM for 6 days
  tumor cell-surface PD-L1: dose-dependently reduced
[1]; M238 R1, 0, 20, 40, 80 μM for 6 days
  tumor cell-surface PD-L1/L2: dose-dependently reduced
Total PD-L1; H358
  total PD-L1 protein level: dose-dependently reduced
Total PD-L1; M238 R1
  total PD-L1 protein level: dose-dependently reduced
[2]; [6]
  body weight loss / toxicities: no appreciable body weight loss or superficial evidence of toxicities
  complete responses: 5 of 9
[2]; AK087 10 mg/kg/day subcutaneously for 17 days, co-treatment with trametinib 0.45 mg/kg/d
  acquired MAPKi-resistance: suppressed acquired MAPKi-resistance
YUMM1.7ER
  response to immune checkpoint blockade: improves responses
NILER1-4
  response to immune checkpoint blockade: improves responses
UBCH7 and ITCH [3]
  interaction between UBCH7 and ITCH: enhances the interaction
ITCH; Screening concentration 10 uM
  Activity (%): 140%
ITCH; reconstituted recombinant proteins, small molecule screen (ref. 25)
  enhancement of auto-ubiquitination of ITCH: 140%
UBCH7 and ITCH [4]
  interaction between UBCH7 and ITCH: enhances the interaction
